# Reference: US10947213B1 (Merck Patent GmbH, priority 2015, dated 2021)
# Counter-ions that a name gives are not always drawn.
# Molecular target: T1, TLR7/NFKb HEK cells (Homo sapiens, UniProt Q9NYK1)
# T1 construct: expressed in transfected cells; host or cells: HEK cells (TLR7/NFKb reporter line)
# T1 sequence (Q9NYK1 27-1049): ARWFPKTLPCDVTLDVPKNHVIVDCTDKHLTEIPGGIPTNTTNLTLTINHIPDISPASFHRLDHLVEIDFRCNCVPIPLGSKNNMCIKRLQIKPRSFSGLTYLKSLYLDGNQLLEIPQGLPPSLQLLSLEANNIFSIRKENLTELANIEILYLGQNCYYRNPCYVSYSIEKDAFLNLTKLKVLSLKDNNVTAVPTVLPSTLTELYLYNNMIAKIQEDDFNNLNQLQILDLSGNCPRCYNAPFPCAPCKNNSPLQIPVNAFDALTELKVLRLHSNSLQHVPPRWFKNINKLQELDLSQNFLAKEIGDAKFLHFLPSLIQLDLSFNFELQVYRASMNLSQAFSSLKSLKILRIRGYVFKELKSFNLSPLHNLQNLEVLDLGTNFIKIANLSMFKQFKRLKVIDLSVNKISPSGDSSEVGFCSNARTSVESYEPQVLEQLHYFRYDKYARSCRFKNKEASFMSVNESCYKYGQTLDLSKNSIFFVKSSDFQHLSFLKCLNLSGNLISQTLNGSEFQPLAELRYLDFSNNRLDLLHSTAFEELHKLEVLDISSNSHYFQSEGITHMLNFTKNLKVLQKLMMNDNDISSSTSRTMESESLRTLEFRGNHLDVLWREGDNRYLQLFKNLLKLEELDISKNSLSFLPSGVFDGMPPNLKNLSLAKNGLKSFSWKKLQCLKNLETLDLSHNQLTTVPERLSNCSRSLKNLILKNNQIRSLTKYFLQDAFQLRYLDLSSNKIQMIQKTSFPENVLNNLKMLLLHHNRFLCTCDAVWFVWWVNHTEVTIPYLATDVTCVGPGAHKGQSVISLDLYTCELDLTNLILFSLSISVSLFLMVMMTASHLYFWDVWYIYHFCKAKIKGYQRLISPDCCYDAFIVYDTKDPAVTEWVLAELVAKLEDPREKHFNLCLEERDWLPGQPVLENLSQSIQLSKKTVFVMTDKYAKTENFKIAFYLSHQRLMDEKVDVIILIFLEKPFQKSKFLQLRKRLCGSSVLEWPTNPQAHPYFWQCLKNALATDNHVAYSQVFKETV
# Experiment: HEK Cell Assay (TLR7/NFKb reporter, Steady-Glo luciferase readout)
# Format: cell-based
# Conditions: 30 min compound preincubation, then R*48 agonist for 5 hours, read-out: Potency
# Outline: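 Steady-Glo luminescence after 5 h stimulation with R*48 agonist, following 30 min compound preincubation. Assay run in HEK cells carrying a TLR7/NFKb luciferase reporter, plated at 5000 cells/well and grown 24 h at 37° C (10% CO2) before treatment.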
row,SMILES,IC50 [nM]
1,"Cc1ncc(N2C[C@@H](C)C[C@@H](NC(=O)CC3CN(C(=O)OC(C)(C)C)C3)C2)c2cccnc12 [Compound 557, 3-{[(3R,5S)-5-Methyl-1-(8-methyl-[1,7]naphthyridin-5-yl)-piperidin-3-ylcarbamoyl]-methyl}-azetidine-1-carboxylic Acid tert-butyl ester]",1000 to 10000
2,"C[C@H]1C[C@@H](NC(=O)CN(C)C)CN(c2ccc(C(F)(F)F)c3nccnc23)C1 [Compound 254, 2-(dimethylamino)-N-[(3R,5S)-5-methyl-1-[8-(trifluoromethyl)quinoxalin-5-yl]piperidin-3-yl]acetamide]",< 1000
3,CC(C(=O)N[C@@H]1C[C@H](C)CN(c2ccc(C#N)c3nccnc23)C1)N1CC(O)C1 (stereo partly shown) [Compound 271],< 1000
4,"C[C@H]1C[C@@H](NCC(N)=O)CN(c2ccnc3nccnc23)C1 [Compound 121, 2-[[(3R,5S)-5-methyl-1-[pyrido[2,3-b]pyrazin-8-yl]piperidin-3-yl]amino]acetamide]",> 10000
5,"CN1CCN(CC(=O)N[C@H]2C[C@@H](C(F)(F)F)CN(c3ccc(C#N)c4nccnc34)C2)CC1 (relative stereo) [Compound 229, cis-N-[1-(8-cyanoquinoxalin-5-yl)-5-(trifluoromethyl)piperidin-3-yl]-2-(4-methylpiperazin-1-yl)acetamide]",< 1000
6,"C[C@H]1C[C@@H](NC(=O)C2(O)CC2)CN(c2ccc(C#N)c3nccnc23)C1 [Compound 230, N-[(3R,5S)-1-(8-cyanoquinoxalin-5-yl)-5-methylpiperidin-3-yl]-1-hydroxycyclopropane-1-carboxamide]",< 1000
7,"Cc1ccc(N2C[C@@H](C)C[C@@H](NC(=O)CN3CCOCC3)C2)c2cccnc12 [Compound 466, N-[(3R,5S)-5-Methyl-1-(8-methyl-quinolin-5-yl)-piperidin-3-yl]-2-morpholin-4-yl-acetamide]",1000 to 10000
8,"CN(C)CC(=O)NC1CN(c2ccc(C#N)c3ncccc23)CC(F)(F)C1 (single isomer, unassigned) [Compound 449]",< 1000
9,"C[C@H]1C[C@@H](N2CC[C@@H](N)C2=O)CN(c2ccnc3nccnc23)C1 [Compound 42, (3R)-3-amino-1-[(3R,5S)-5-methyl-1-[pyrido[2,3-b]pyrazin-8-yl]piperidin-3-yl]pyrrolidin-2-one]",> 10000
10,"C[C@H]1C[C@@H](N)CN(c2ccc(Cl)c3ncccc23)C1 [Compound 78, (3R,5S)-1-(8-chloroquinolin-5-yl)-5-methylpiperidin-3-amine]",< 1000
11,"C[C@H]1C[C@@H](NC(=O)CC2CCN(CC(F)F)CC2)CN(c2ccc(C(F)(F)F)c3ncccc23)C1 [Compound 246, 2-[1-(2,2-difluoroethyl)piperidin-4-yl]-N-[(3R,5S)-5-methyl-1-[8-(trifluoromethyl)quinolin-5-yl]piperidin-3-yl]acetamide]",< 1000
12,"C[C@H]1C[C@@H](NC(=O)CN(C)C)CN(c2ccc(C#N)c3nccnc23)C1 [Compound 32, N-((3R,5S)-1-(8-cyanoquinoxalin-5-yl)-5-methylpiperidin-3-yl)-2-(dimethylamino)acetamide]",< 1000
13,"N#Cc1ccc(N2CCC(F)C(N)C2)c2nccnc12 (stereo not shown) [Compound 524, 8-(3-Amino-4-fluoro-piperidin-1-yl)-quinoxaline-5-carbonitrile hydrochloride]",1000 to 10000
14,"C[C@@H]1C[C@@H](C(=O)NCC2CCN(C)CC2)CN(c2ccc(C(F)(F)F)c3ncccc23)C1 (relative stereo) [Compound 548, trans-5-Methyl-1(8-trifluoromethyl-quinolin-5-yl)-piperidine-3-carboxylic acid (1-methyl-piperidin-4-ylmethyl)-amide]",< 1000
15,"CCC(C)CC(=O)N[C@@H]1C[C@H](C)CN(c2ccnc3nccnc23)C1 (single isomer, unassigned) [Compound 152]",1000 to 10000
16,"C[C@H]1C[C@@H](N)CN(c2ccc(C#N)c3nccnc23)C1 [Compound 12, 8-((3R,5S)-3-amino-5-methylpiperidin-1-yl)quinoxaline-5-carbonitrile]",< 1000
17,"CC(C(=O)N[C@@H]1C[C@H](C)CN(c2ccc(C(F)F)c3ncccc23)C1)N1CC(F)(F)C1 (stereo partly drawn) [Compound 311, 2-(3,3-difluoroazetidin-1-yl)-N-[(3R,5S)-1-[8-(difluoromethyl)quinolin-5-yl]-5-methylpiperidin-3-yl]propanamide]",1000 to 10000
18,"C[C@H]1C[C@@H](NC(=O)C2(C)COC2)CN(c2ccc(C#N)c3nccnc23)C1 [Compound 36, N-((3R,5S)-1-(8-cyanoquinoxalin-5-yl)-5-methylpiperidin-3-yl)-3-methyloxetane-3-carboxamide]",1000 to 10000
19,"C[C@H]1C[C@@H](NC(=O)[C@H](C)N(C)C)CN(c2ccc(C(F)(F)F)c3ncccc23)C1 [Compound 526, (S)-2-Dimethylamino-N-[(3R,5S)-5-methyl-1-(8-trifluoromethyl-quinolin-5-yl)-piperidin-3-yl]-propionamide]",< 1000
20,"CN1CCC(CC(=O)NC2CN(c3ccc(C#N)c4nccnc34)CC(F)(F)C2)CC1 (single isomer, unassigned) [Compound 522]",< 1000
21,"C[C@H]1C[C@@H](NC2CCN(C)C2=O)CN(c2ccc(C(F)(F)F)c3ncccc23)C1 (single isomer, unassigned) [Compound 238]",< 1000
22,"C[C@H]1C[C@@H](NC2CCN(C)C2=O)CN(c2ccnc3nccnc23)C1 (stereo partly drawn) [Compound 126, 1-methyl-3-[[(3R,5S)-5-methyl-1-[pyrido[2,3-b]pyrazin-8-yl]piperidin-3-yl]amino]pyrrolidin-2-one]",> 10000
23,"C[C@H]1C[C@@H](N(C)C(=O)CN(C)C)CN(c2ccc(C(F)(F)F)c3ncccc23)C1 [Compound 452, 2-Dimethylamino-N-methyl-N-[(3R,5S)-5-methyl-1-(8-trifluoromethyl-quinolin-5-yl)-piperidin-3-yl]-acetamide]",< 1000
24,"CN(C)CC(=O)N[C@H]1C[C@@H](C(F)(F)F)CN(c2ccc(C#N)c3nccnc23)C1 (relative stereo) [Compound 222, cis-N-[1-(8-cyanoquinoxalin-5-yl)-5-(trifluoromethyl)piperidin-3-yl]-2-(dimethylamino)acetamide]",< 1000
25,"C[C@H]1C[C@@H](NC(=O)C2(N)CC2)CN(c2ccc(C#N)c3nccnc23)C1 [Compound 31, 1-amino-N-((3R,5S)-1-(8-cyanoquinoxalin-5-yl)-5-methylpiperidin-3-yl)cyclopropanecarboxamide hydrochloride]",1000 to 10000
26,"C[C@H]1C[C@@H](NC(=O)CN(C)C)CN(c2ccc(Cl)c3ncccc23)C1 [Compound 264, N-[(3R,5S)-1-(8-chloroquinolin-5-yl)-5-methylpiperidin-3-yl]-2-(dimethylamino)acetamide]",< 1000
27,"C[C@H]1C[C@@H](N)CN(c2ncc(F)c3nccnc23)C1 [Compound 459, (3R,5S)-1-(8-Fluoro-pyrido[3,4-b]pyrazin-5-yl)-5-methyl-piperidin-3-ylamine hydrochloride]",1000 to 10000
28,"Cc1ccc(N2C[C@H](N)C[C@H](C(F)(F)F)C2)c2cccnc12 [Compound 586, (3R,5S)-1-(8-Methyl-quinolin-5-yl)-5-trifluoromethyl-piperidin-3-ylamine hydrochloride]",< 1000
